The test deals with Angiotensin-converting enzyme (Homo sapiens, UniProt P12821). Put plainly: Binding affinity against Angiotensin I converting enzyme.
Chain of Angiotensin-converting enzyme (P12821 whole entry): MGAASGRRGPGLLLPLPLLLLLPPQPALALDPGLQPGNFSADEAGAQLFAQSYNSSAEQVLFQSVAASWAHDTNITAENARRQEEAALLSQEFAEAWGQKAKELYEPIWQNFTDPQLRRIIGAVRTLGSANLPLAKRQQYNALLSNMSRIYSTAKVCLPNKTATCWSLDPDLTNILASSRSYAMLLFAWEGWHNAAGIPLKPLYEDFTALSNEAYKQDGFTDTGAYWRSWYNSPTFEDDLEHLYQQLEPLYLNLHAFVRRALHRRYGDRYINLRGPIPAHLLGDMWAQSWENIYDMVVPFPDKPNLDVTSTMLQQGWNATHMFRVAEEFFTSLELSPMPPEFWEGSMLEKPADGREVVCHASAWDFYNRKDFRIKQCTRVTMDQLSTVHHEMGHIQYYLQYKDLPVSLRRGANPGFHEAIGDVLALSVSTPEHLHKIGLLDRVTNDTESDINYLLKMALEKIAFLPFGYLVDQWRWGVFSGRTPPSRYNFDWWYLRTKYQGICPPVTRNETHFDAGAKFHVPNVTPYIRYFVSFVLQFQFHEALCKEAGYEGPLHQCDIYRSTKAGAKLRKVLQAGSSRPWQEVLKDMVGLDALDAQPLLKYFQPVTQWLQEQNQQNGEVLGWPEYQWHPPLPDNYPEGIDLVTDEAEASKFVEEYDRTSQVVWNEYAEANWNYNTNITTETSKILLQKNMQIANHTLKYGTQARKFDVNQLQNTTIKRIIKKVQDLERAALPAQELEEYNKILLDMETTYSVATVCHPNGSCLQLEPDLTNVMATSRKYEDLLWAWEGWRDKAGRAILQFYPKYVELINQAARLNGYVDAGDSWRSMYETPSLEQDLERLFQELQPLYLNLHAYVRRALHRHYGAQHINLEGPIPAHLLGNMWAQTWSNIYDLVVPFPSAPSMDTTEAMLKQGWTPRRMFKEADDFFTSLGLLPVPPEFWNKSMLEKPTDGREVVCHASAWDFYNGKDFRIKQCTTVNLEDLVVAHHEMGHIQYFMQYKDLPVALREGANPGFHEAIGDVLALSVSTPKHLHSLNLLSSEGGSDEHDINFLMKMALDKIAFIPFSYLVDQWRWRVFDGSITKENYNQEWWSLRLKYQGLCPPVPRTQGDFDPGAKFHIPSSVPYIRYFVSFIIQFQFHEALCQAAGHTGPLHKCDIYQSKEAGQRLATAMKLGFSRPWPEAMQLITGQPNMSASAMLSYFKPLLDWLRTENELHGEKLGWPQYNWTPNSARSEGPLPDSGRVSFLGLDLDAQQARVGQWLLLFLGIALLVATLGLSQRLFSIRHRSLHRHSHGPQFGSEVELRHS

A word on the Ki: it is a measure of affinity in units of concentration, obtained from inhibition or displacement. Read a low Ki as higher affinity. In the case of `CC(C)C[C@H](C(=O)O)N1CCO[C@@H](c2ccccc2)[C@H](NC(=O)[C@H](S)Cc2ccccc2)C1=O`, the Ki was 50 µM.

The values are drawn from ChEMBL document CHEMBL1127183, “Synthesis of 6-amino-5-oxo-7-phenyl-1,4-oxazepines as conformationally constrained gauche () dipeptide mimetics” (Bioorg Med Chem Lett, 1993).
